Assay [1] concerns Rattus norvegicus. Kind of assay: Inhibition of paw swelling relative to the tebufelone in rat. Value was reported as Carrageenan paw edema index. In kind it is functional.
Assay [2] concerns Rattus norvegicus. Briefly: Analgesic activity (50 mg/kg, sc)in phenylquinone-induced abdominal constriction assay(PAC). In kind it is functional, Abdomen.
For assay [3], the species on record is Rattus norvegicus. Kind of assay: Compound was tested for its analgesic activity in phenylquinone-induced abdominal constriction assay(PAC). In kind it is functional. The note with it: Abdomen.
Assay [4] deals with Rattus norvegicus. Briefly: Comparative activity versus Dihydrodimethylbenzofurans in the CPE (Carrageenan paw edema) assay; (-) indicates the compound is inactive. In kind it is functional, organism-based.
Assay [5] deals with T1, Prostaglandin G/H synthase 2 (Homo sapiens, UniProt P35354).
T1 sequence (P35354 whole entry): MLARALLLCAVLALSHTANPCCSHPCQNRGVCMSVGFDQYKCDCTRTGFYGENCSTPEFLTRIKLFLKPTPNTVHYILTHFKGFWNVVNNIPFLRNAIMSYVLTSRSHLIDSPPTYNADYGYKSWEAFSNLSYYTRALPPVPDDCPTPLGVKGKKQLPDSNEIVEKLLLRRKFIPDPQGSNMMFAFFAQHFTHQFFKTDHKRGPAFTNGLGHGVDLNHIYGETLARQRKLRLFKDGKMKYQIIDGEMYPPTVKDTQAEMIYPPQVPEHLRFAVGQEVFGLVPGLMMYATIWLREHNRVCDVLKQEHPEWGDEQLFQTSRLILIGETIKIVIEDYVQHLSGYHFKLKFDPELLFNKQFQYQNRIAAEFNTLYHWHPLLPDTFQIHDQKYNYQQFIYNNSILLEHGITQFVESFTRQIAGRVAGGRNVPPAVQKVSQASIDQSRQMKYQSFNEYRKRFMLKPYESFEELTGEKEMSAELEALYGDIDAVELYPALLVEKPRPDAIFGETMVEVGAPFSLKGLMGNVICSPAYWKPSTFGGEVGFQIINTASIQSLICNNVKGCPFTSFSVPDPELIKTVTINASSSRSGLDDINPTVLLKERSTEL
Description: Inhibitory activity against prostaglandin G/H synthase 2 (COX-2)

For assay [6], the target named is Prostaglandin G/H synthase 1 (Homo sapiens, UniProt P23219).
Description: Inhibitory activity against prostaglandin G/H synthase 1 (COX-1)
The species entered for assay [7] is Rattus norvegicus. Briefly: Comparative activity versus Dihydrodimethylbenzofurans in the CPE assay; -, indicates inactive. In kind it is functional, organism-based.
The nature of assay [8]: Comparative activity versus Dihydrodimethylbenzofurans in the CPE (Carrageenan paw edema) assay; -, inactive. The note with it: Rattus norvegicus. (In the carrageenan paw model, swelling and tenderness develop within hours.)
Assay [9] deals with Rattus norvegicus. Briefly: Compound was tested at a dose of 50 mg/kg for its antiinflammatory activity in carrageenan paw edema (CPE) assay.
For assay [10], the target named is T2, Polyunsaturated fatty acid 5-lipoxygenase (Homo sapiens, UniProt P09917).
T2 sequence (P09917 whole entry): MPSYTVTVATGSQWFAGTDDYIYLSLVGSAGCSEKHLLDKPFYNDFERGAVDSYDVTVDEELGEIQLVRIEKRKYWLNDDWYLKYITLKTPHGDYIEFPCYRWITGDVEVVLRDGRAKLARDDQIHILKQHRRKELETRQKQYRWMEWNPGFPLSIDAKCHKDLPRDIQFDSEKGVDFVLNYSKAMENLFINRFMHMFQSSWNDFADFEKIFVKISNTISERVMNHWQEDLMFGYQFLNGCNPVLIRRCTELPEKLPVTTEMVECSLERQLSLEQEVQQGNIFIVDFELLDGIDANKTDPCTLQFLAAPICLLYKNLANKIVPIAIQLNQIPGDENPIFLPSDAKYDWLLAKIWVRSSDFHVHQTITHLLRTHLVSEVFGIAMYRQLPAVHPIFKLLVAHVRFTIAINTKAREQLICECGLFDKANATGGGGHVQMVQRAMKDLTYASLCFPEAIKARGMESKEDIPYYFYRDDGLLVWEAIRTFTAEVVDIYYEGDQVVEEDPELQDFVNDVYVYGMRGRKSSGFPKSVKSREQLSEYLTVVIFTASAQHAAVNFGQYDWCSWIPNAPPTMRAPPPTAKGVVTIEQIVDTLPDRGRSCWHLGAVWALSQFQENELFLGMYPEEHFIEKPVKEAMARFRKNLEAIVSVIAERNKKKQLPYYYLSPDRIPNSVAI
Kind of assay: Inhibition of 5-Lipoxygenase (5-LOX).

The test system of assay [11] is Rattus norvegicus. Briefly: Comparative activity versus Dihydrodimethylbenzofurans in the CPE (Carrageenan paw edema) assay; -, inactive. In kind it is functional, organism-based.

The term Inhibition denotes the relative decrease from the control value, in per cent. Usually ED50 stands for the midpoint of the dose-response relation. The low end stands for greater potency, the high end for weaker potency. One may read the IC50 as the point on the concentration scale where inhibition reaches its midpoint. High values mean weaker potency, low ones greater potency. What is called inhibition in vivo is how much of the control response was suppressed. Low values mean a weak effect, high ones a strong effect.

Molecules are shown by their SMILES. The source made the active and inactive calls. No cut-off for these calls is given here.

Sequence of Prostaglandin G/H synthase 1 (P23219 whole entry): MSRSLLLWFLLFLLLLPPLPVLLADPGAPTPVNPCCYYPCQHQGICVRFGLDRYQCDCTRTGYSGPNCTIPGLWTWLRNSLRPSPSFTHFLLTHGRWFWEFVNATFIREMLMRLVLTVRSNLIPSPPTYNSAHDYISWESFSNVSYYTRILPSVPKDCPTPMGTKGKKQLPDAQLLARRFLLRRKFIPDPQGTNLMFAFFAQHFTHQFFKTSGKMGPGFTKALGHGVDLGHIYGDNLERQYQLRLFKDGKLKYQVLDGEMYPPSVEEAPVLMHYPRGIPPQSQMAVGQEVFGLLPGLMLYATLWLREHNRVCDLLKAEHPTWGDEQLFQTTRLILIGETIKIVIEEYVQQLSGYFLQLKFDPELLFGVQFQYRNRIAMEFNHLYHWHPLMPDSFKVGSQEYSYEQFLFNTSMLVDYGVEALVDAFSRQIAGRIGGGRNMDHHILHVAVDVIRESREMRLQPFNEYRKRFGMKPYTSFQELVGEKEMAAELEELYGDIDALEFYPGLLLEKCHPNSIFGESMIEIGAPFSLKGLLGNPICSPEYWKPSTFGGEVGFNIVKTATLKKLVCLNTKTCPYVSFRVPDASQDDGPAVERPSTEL

`COc1ccc2cc([C@H](C)C(=O)O)ccc2c1` [NAPROXEN] showed a CPE index in the assay with Rattus norvegicus [1] of 1.06. This molecule also showed an Inhibition in the assay on Rattus norvegicus [2] of 54%. The ED50 in the assay listed under Rattus norvegicus [3] turned out to be 1.3 mg/kg.

For the molecule `CC(C)(C)c1cc(/C=C2/SC(N)=NC2=O)cc2c1OCC2(C)C`, the result in the assay with Rattus norvegicus [4] was inactive. Further, in the assay on Rattus norvegicus [1], the CPE index worked out at 0.07. Moreover, the IC50 worked out at 3 µM in assay [5] and 5 µM in [6].

As for `Cc1cc(/C=C\c2cc(C(C)(C)C)c3c(c2)C(C)(C)CO3)on1`, in the assay on Rattus norvegicus [4], the outcome was inactive. The molecule also returned a CPE index in the assay on Rattus norvegicus [1] of 0.

With `Cc1nc(-c2cc(C(C)(C)C)c(O)c(C(C)(C)C)c2)no1`, the result with Rattus norvegicus [4] was inactive.

Take `CC(C)(C)c1cc(-c2cn3c(n2)S(=O)(=O)C=C3)cc2c1OCC2(C)C`: the result in the assay listed under Rattus norvegicus [7] was inactive. The molecule also registered a CPE index in the assay on Rattus norvegicus [1] of 0.19.

Molecule `CC(C)(C)c1cc(C(N)=O)cc2c1OCC2(C)C` displayed a CPE index in the assay with Rattus norvegicus [1] of 0.07. Also, the result in assay [8] was inactive.

In the assay on Rattus norvegicus [9], `C#CCCCC(=O)c1cc(C(C)(C)C)c(O)c(C(C)(C)C)c1` [TEBUFELONE] came in with an inhibition in vivo at 50 mg/kg of 51.1%. The ED50 in the assay filed under Rattus norvegicus [3] amounted to 3.7 mg/kg.

As for `CC(C)(C)c1cc(C(=O)O)cc(C(C)(C)C)c1O`, in the assay on Rattus norvegicus [4], the outcome was inactive.

Turning to `CN(C(=O)c1cc(C(C)(C)C)c2c(c1)C(C)(C)CO2)C1CC1`, in the assay with Rattus norvegicus [1], the CPE index came to 1.82. Further, the IC50 in assay [10] was 12 µM; in [5] it was 1 µM; in [6], 5 µM. Moreover, the ED50 in the assay filed under Rattus norvegicus [3] came out at 10 mg/kg.

Regarding `CC(C)(C)c1cc(-c2cn3c(n2)S(=O)(=O)C=C3)cc(C(C)(C)C)c1O`, in the assay on Rattus norvegicus [4], the result was inactive.

`CC(=O)Nc1cc(C(C)(C)C)c(O)c(C(C)(C)C)c1`: the result with Rattus norvegicus [4] was inactive.

On to `CC(C)(C)c1cc(/C=C\c2ccccn2)cc2c1OCC2(C)C`, for which, in the assay with Rattus norvegicus [4], the result was inactive. In addition, the CPE index with Rattus norvegicus [1] is recorded as 0.5.

With `CCN(C)C(=O)c1cc(C(C)(C)C)c2c(c1)C(C)(C)CO2`, the CPE index in the assay on Rattus norvegicus [1] is 0.86. In addition, the results for the IC50 in [10], in assay [5] and in assay [6] were 22 µM, 4.5 µM and 2.5 µM, respectively. Moreover, in the assay listed under Rattus norvegicus [3], the ED50 worked out at 19 mg/kg.

Turning to `CC(C)(C)c1cc(C(N)=O)cc(C(C)(C)C)c1O`, in the assay with Rattus norvegicus [4], the result was inactive.

In the assay on Rattus norvegicus [1], `CN(C)C(=O)c1cc(C(C)(C)C)c2c(c1)C(C)(C)CO2` returned a CPE index of 0.36. In the assay with Rattus norvegicus [11], the outcome was inactive.

As for `CCNC(=O)c1cc(C(C)(C)C)c2c(c1)C(C)(C)CO2`, the CPE index in the assay on Rattus norvegicus [1] is recorded as 0.88. Moreover, the Inhibition in the assay with Rattus norvegicus [2] amounted to 56%. Moreover, the figures for the IC50 in [5] and in [6] were 6 µM and 20 µM, respectively.

These data come from ChEMBL document CHEMBL1131087, “New cyclooxygenase-2/5-lipoxygenase inhibitors. 3. 7-tert-butyl-2, 3-dihydro-3,3-dimethylbenzofuran derivatives as gastrointestinal safe antiinflammatory and analgesic agents: variations at the 5 position” (J Med Chem, 1998).
